Measured values: US11304897B2, “Pharmaceutical formulation containing umeclidinium bromide and vilanterol trifenatate” (ANOVENT PHARMACEUTICAL (U.S.), LLC, priority 2020, dated 2022)
In brackets after ≈: the same amount, converted by molar mass.

Experiment: Solubility in different cosolvents
Format: physicochemical
Excerpt: Solubility in Different Cosolvents: 5% tween-80: Dissolve 5 g tween-80 in 100 g purified water. 5% Sulfobutylether β-cyclodextrin: Dissolve 5 g Sulfobutylether β-cyclodextrin in 100 g purified water. 20% Sulfobutylether β-cyclodextrin: Dissolve 20 g Sulfobutylether β-cyclodextrin in 100 g purified water.

[1] = 0.2 mg/ml tween-80, aqueous with cosolvent or surfactant or cyclodextrin
[2] = 5% sulfobutylether β-cyclodextrin in purified water, aqueous with cosolvent or surfactant or cyclodextrin
[3] = 5% tween-80 in purified water, aqueous with cosolvent or surfactant or cyclodextrin, 5% tween -80
[4] = 20% sulfobutylether β-cyclodextrin in purified water, aqueous with cosolvent or surfactant or cyclodextrin

SMILES	solubility [1]	solubility [2]	solubility [3]	solubility [4]	solubility (in words) (purified water)	solubility (purified water, water)
OC(c1ccccc1)(c1ccccc1)C12CC[N+](CCOCc3ccccc3)(CC1)CC2.[Br-] [UB, 1-[2-(benzyloxy)ethyl]-4-(hydroxydiphenylmethyl)-1-azoniabicyclo[2.2.2]octane bromide]	582 µg/mL	3560 µg/mL	3540 µg/mL	3450 µg/mL	almost insoluble	618 µg/mL
OCc1cc([C@@H](O)CNCCCCCCOCCOCc2c(Cl)cccc2Cl)ccc1O [VT, triphenylacetic acid-4-{(1R)-2-[(6-{2-[(2,6-dicholorobenzyl)oxy]ethoxy}hexyl)amino]-1-hydroxyethyl}-2-(hydroxymethyl)phenol (1:1)]	62.6 µg/mL (≈ 129 µM)	370 µg/mL (≈ 760 µM)	1370 µg/mL (≈ 2820 µM)	1400 µg/mL (≈ 2880 µM)	almost insoluble	53.7 µg/mL (≈ 110 µM)
